Measurements taken from ChEMBL document CHEMBL1122446.

Columns and labels:
[1] = target: Dihydrofolate reductase (Lactobacillus casei) (UniProt P00381); settings: Lacticaseibacillus casei
[2] = target: T1, Dihydrofolate reductase (Homo sapiens) (UniProt P00374)
T1 sequence (whole entry): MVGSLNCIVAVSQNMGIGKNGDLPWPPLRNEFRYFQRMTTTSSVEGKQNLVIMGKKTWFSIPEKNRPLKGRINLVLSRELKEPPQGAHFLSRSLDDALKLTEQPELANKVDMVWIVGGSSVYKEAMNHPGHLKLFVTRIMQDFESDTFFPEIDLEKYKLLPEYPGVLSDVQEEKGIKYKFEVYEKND

[3] = target: T2, Dihydrofolate reductase (Gallus gallus) (UniProt P00378)
T2 sequence (whole entry): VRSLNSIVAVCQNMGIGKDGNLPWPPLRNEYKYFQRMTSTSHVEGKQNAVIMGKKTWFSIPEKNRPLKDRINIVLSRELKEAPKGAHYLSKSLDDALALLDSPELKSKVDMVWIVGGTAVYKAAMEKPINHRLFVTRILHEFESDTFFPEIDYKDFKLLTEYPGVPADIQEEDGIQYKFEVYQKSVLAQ

Sequence of Dihydrofolate reductase (Lactobacillus casei) (P00381 whole entry): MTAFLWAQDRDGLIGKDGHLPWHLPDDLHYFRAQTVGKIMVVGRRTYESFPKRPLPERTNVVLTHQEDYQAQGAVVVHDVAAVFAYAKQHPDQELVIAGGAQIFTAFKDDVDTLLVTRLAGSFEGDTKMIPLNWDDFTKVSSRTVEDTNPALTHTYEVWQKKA

I / E100 [1]	I / E100 [2]	I / E100 [3]	Compound
1.9	2.9	3.5	CN(C)c1cccc2c(S(=O)(=O)NCCCCC(NC(=O)c3ccc(N(C)Cc4cnc5nc(N)nc(N)c5n4)cc3)C(=O)O)cccc12 (stereo unspecified)
1	1	1.4	CN(Cc1cnc2nc(N)nc(N)c2n1)c1ccc(C(=O)NC(CCCCN)C(=O)O)cc1 (stereo unspecified)
